Laboratory results reported in ChEMBL document CHEMBL4800727 (2021).

Tests used:
[1] = target: Cyclin-dependent kinase 2/cyclin A (Homo sapiens) (UniProt P24941+P20248+P78396); experiment: cyclin-dependent kinase 2 / clyclinA Millipore kinase panel; format: protein-complex assay; settings: Compound concentration 10.0 uM
[2] = target: CDK6/cyclin D3 (Homo sapiens) (UniProt P30281+Q00534); experiment: cyclin-dependent kinase 6 / cyclinD3 Millipore kinase panel; format: protein-complex assay; settings: Compound concentration 10.0 uM
[3] = target: Death-associated protein kinase 3 (Homo sapiens) (UniProt O43293); experiment: death-associated protein kinase 3 Millipore kinase panel; settings: Compound concentration 10.0 uM
[4] = target: Ephrin type-A receptor 2 (Homo sapiens) (UniProt P29317); experiment: EPH receptor A2 Millipore kinase panel; settings: Compound concentration 10.0 uM
[5] = target: Ephrin type-A receptor 4 (Homo sapiens) (UniProt P54764); experiment: EPH receptor A4 Millipore kinase panel; settings: Compound concentration 10.0 uM
[6] = target: Tyrosine-protein kinase Fyn (Homo sapiens) (UniProt P06241); experiment: FYN oncogene related to SRC, FGR, YES Millipore kinase panel; settings: Compound concentration 10.0 uM
[7] = target: MAP kinase-interacting serine/threonine-protein kinase 2 (Homo sapiens) (UniProt Q9HBH9); experiment: MAP kinase interacting serine/threonine kinase 2 Millipore kinase panel; settings: Compound concentration 10.0 uM
[8] = target: Serine/threonine-protein kinase mTOR (Homo sapiens) (UniProt P42345); experiment: mechanistic target of rapamycin Millipore kinase panel; settings: Compound concentration 10.0 uM
[9] = target: Hepatocyte growth factor receptor (Homo sapiens) (UniProt P08581); experiment: met proto-oncogene Millipore kinase panel; settings: Compound concentration 10.0 uM
[10] = target: Mitogen-activated protein kinase 9 (Homo sapiens) (UniProt P45984); experiment: mitogen-activated protein kinase 9 Millipore kinase panel; settings: Compound concentration 10.0 uM
[11] = target: Dual specificity mitogen-activated protein kinase kinase 1 (Homo sapiens) (UniProt Q02750); experiment: mitogen-activated protein kinase kinase 1 Millipore kinase panel; settings: Compound concentration 10.0 uM
[12] = target: Muscle, skeletal receptor tyrosine-protein kinase (Homo sapiens) (UniProt O15146); experiment: muscle, skeletal, receptor tyrosine kinase Millipore kinase panel; settings: Compound concentration 10.0 uM
[13] = target: Serine/threonine-protein kinase Nek11 (Homo sapiens) (UniProt Q8NG66); experiment: NIMA -related kinase 11 Millipore kinase panel; settings: Compound concentration 10.0 uM
[14] = target: Serine/threonine-protein kinase Nek2 (Homo sapiens) (UniProt P51955); experiment: NIMA -related kinase 2 Millipore kinase panel; settings: Compound concentration 10.0 uM
[15] = target: PI3-kinase p110-delta/p85-alpha (Homo sapiens) (UniProt P27986+O00329); experiment: phosphoinositide-3-kinase, catalytic, delta polypeptide Millipore kinase panel; format: protein-complex assay; settings: Compound concentration 10.0 uM
[16] = target: Phosphorylase b kinase gamma catalytic chain, liver/testis isoform (Homo sapiens) (UniProt P15735); experiment: phosphorylase kinase, gamma 2 Millipore kinase panel; settings: Compound concentration 10.0 uM
[17] = target: Serine/threonine-protein kinase pim-1 (Homo sapiens) (UniProt P11309); experiment: pim-1 oncogene Millipore kinase panel; settings: Compound concentration 10.0 uM
[18] = target: cAMP-dependent protein kinase catalytic subunit PRKX (Homo sapiens) (UniProt P51817); experiment: protein kinase, X-linked Millipore kinase panel; settings: Compound concentration 10.0 uM
[19] = target: Protein-tyrosine kinase 6 (Homo sapiens) (UniProt Q13882); experiment: PTK6 protein tyrosine kinase 6 Millipore kinase panel; settings: Compound concentration 10.0 uM
[20] = target: Ribosomal protein S6 kinase alpha-5 (Homo sapiens) (UniProt O75582); experiment: ribosomal protein S6 kinase, 90kDa, polypeptide 5 Millipore kinase panel; settings: Compound concentration 10.0 uM
[21] = target: Ribosomal protein S6 kinase alpha-6 (Homo sapiens) (UniProt Q9UK32); experiment: ribosomal protein S6 kinase, 90kDa, polypeptide 6 Millipore kinase panel; settings: Compound concentration 10.0 uM
[22] = target: Serine/threonine-protein kinase TAO2 (Homo sapiens) (UniProt Q9UL54); experiment: TAO kinase 2 Millipore kinase panel; settings: Compound concentration 10.0 uM
[23] = target: Serine/threonine-protein kinase TAO3 (Homo sapiens) (UniProt Q9H2K8); experiment: TAO kinase 3 Millipore kinase panel; settings: Compound concentration 10.0 uM
[24] = target: RAC-gamma serine/threonine-protein kinase (Homo sapiens) (UniProt Q9Y243); experiment: v-akt murine thymoma viral oncogene homolog 3 Millipore kinase panel; settings: Compound concentration 10.0 uM
[25] = target: Serine/threonine-protein kinase VRK2 (Homo sapiens) (UniProt Q86Y07); experiment: vaccinia related kinase 2 Millipore kinase panel; settings: Compound concentration 10.0 uM
[26] = target: Serine/threonine-protein kinase WNK2 (Homo sapiens) (UniProt Q9Y3S1); experiment: WNK lysine deficient protein kinase 2 Millipore kinase panel; settings: Compound concentration 10.0 uM
[27] = target: Dual specificity calcium/calmodulin-dependent 3',5'-cyclic nucleotide phosphodiesterase 1B (Homo sapiens, UniProt Q01064); experiment: hPDE1B1 PDE scan
[28] = target: High affinity cGMP-specific 3',5'-cyclic phosphodiesterase 9A (Homo sapiens, UniProt O76083); experiment: hPDE9A PDE scan
[29] = target: Dual 3',5'-cyclic-AMP and -GMP phosphodiesterase 11A (Homo sapiens, UniProt Q9HCR9); experiment: hPDE11A4 PDE scan
[30] = target: Galanin receptor type 2 (Homo sapiens) (UniProt O43603); experiment: hGAL2 Cerep panel; settings: Compound concentration 10.0 uM
[31] = target: Melanocortin receptor 4 (Homo sapiens) (UniProt P32245); experiment: hMC4 Cerep panel; settings: Compound concentration 10.0 uM
[32] = target: 5-hydroxytryptamine receptor 1B (Rattus norvegicus) (UniProt P28564); experiment: r5HT1B Cerep panel; settings: Compound concentration 10.0 uM
Rattus norvegicus [33] = species: Rattus norvegicus; experiment: rGlutamate (ionotropic) kanic acid Cerep panel; settings: Compound concentration 10.0 uM
[34] = target: T1, Muscarinic acetylcholine receptor M2 (Homo sapiens) (UniProt P08172); experiment: hM2 Cerep panel; settings: Compound concentration 10.0 uM
T1 sequence (whole entry): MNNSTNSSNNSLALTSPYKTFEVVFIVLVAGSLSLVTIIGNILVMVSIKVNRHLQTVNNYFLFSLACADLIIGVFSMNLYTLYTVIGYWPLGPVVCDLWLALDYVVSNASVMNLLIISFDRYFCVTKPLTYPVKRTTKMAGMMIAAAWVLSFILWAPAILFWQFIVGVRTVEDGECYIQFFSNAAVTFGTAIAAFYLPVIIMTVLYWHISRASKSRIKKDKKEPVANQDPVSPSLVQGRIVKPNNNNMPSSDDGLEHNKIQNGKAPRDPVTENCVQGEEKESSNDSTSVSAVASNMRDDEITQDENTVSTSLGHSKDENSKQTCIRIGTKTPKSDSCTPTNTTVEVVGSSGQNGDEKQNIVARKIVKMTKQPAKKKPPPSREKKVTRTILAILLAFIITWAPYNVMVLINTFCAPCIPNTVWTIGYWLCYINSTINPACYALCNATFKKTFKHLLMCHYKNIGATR

[35] = target: P2X receptor (Rattus norvegicus) (UniProt P51579+P49653+P51578+Q64663+P47824+P51577+P49654); experiment: rP2X Cerep panel; format: protein assay; settings: Compound concentration 10.0 uM
[36] = target: 5-hydroxytryptamine receptor 6 (Homo sapiens) (UniProt P50406); experiment: h5HT6 Cerep panel; settings: Compound concentration 10.0 uM
Rattus norvegicus [37] = species: Rattus norvegicus; experiment: rK channel Cerep panel; settings: Compound concentration 10.0 uM
[38] = target: Histamine H1 receptor (Homo sapiens) (UniProt P35367); experiment: hH1 Cerep panel; settings: Compound concentration 10.0 uM
[39] = target: Histamine H2 receptor (Homo sapiens) (UniProt P25021); experiment: hH2 Cerep panel; settings: Compound concentration 10.0 uM
[40] = target: 3',5'-cyclic-AMP phosphodiesterase 4D (Homo sapiens, UniProt Q08499); experiment: hPDE4D2 Cerep panel; settings: Compound concentration 10.0 uM
[41] = target: Prostaglandin G/H synthase 2 (Homo sapiens) (UniProt P35354); experiment: hCOX2 Cerep panel; settings: Compound concentration 10.0 uM
[42] = target: 5-hydroxytryptamine receptor 1E (Homo sapiens) (UniProt P28566); settings: Compound concentration 10.0 uM
[43] = target: D(2) dopamine receptor (Homo sapiens) (UniProt P14416); settings: Compound concentration 10.0 uM

Ephrin type-A receptor 2 (Homo sapiens), sequence (P29317 whole entry): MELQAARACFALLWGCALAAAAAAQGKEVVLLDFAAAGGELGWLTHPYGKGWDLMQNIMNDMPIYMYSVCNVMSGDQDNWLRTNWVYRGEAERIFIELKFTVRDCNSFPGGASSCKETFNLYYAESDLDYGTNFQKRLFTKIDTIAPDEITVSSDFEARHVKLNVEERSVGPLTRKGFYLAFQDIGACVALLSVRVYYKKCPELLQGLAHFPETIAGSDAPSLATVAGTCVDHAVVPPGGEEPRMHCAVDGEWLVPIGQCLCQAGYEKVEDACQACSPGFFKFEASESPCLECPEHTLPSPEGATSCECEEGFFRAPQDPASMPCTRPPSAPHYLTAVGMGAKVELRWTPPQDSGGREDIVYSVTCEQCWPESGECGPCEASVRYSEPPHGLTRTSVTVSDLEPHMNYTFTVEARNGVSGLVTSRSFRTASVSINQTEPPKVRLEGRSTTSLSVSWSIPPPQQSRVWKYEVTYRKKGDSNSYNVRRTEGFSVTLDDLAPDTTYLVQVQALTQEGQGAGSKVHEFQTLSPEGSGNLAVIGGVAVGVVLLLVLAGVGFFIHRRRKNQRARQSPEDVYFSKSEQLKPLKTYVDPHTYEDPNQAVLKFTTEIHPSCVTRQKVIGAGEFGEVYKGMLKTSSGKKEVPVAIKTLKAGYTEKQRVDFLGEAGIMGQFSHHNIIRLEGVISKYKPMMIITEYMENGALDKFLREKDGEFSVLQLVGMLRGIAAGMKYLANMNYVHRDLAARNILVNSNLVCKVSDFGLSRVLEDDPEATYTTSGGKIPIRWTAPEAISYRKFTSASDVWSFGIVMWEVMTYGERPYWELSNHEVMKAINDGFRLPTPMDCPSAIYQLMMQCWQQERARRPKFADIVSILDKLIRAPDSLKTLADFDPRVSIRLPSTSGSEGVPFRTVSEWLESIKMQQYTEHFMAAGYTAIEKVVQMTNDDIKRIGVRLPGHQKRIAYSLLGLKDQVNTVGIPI
Dual specificity calcium/calmodulin-dependent 3',5'-cyclic nucleotide phosphodiesterase 1B, sequence (Q01064 whole entry): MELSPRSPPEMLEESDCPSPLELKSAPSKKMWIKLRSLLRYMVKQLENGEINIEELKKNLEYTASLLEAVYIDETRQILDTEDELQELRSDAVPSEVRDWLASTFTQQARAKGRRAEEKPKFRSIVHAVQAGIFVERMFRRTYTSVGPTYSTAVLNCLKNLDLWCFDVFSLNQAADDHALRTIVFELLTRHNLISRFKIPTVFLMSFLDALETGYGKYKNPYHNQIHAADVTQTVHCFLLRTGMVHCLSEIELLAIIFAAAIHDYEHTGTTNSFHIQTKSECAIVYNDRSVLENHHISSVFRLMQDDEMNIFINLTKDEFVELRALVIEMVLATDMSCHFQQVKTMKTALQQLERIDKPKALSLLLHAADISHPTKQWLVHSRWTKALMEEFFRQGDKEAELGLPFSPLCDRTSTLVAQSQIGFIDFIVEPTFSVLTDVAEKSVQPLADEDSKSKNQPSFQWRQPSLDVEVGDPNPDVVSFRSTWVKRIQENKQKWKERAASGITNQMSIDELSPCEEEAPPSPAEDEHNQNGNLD
Serine/threonine-protein kinase pim-1 (Homo sapiens), sequence (P11309 whole entry, looked up): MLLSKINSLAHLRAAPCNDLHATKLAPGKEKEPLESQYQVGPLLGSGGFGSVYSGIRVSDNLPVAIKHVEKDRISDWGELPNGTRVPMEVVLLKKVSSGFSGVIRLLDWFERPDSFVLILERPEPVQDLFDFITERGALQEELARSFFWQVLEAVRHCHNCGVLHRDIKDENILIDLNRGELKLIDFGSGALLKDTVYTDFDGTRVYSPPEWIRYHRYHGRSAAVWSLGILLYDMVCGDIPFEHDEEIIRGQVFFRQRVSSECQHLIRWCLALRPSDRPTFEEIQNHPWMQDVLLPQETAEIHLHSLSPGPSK
High affinity cGMP-specific 3',5'-cyclic phosphodiesterase 9A, sequence (O76083 whole entry): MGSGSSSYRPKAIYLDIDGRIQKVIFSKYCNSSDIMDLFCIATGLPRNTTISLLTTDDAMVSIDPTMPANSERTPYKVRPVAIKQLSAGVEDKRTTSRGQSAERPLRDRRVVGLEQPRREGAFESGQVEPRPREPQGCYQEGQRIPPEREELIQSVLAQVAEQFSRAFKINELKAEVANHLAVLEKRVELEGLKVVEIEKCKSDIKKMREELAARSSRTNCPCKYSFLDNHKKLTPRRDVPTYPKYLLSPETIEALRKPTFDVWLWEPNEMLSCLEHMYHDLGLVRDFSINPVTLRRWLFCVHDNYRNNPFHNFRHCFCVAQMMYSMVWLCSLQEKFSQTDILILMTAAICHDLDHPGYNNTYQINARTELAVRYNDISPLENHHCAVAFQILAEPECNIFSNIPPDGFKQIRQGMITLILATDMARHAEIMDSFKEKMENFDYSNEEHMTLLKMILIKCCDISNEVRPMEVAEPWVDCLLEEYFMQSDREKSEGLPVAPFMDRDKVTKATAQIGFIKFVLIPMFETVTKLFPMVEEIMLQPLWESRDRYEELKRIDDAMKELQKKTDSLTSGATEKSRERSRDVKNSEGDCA
MAP kinase-interacting serine/threonine-protein kinase 2 (Homo sapiens), sequence (Q9HBH9 whole entry, looked up): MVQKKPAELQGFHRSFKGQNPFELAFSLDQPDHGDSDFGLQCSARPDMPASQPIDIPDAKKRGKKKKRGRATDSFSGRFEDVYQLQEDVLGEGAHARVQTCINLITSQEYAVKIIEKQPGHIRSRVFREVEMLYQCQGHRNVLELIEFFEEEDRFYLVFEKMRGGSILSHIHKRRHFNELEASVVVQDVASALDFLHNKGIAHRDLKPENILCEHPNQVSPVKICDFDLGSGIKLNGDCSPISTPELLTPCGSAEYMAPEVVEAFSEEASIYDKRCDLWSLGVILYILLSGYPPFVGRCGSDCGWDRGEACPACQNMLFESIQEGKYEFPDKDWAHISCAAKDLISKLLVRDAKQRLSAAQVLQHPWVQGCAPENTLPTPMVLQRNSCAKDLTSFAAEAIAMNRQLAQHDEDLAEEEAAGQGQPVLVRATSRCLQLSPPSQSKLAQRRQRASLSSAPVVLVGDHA
5-hydroxytryptamine receptor 1B (Rattus norvegicus), sequence (P28564 whole entry): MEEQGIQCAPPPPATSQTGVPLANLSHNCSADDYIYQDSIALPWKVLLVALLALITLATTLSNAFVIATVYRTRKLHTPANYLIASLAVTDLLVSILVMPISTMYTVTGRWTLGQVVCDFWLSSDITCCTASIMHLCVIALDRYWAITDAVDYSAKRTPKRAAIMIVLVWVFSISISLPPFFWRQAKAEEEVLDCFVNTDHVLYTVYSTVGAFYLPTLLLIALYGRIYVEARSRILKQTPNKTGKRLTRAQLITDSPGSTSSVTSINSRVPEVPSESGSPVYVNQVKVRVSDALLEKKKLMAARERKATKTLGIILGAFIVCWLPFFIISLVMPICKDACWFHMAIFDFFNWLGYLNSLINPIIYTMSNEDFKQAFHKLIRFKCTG
Prostaglandin G/H synthase 2 (Homo sapiens), sequence (P35354 whole entry): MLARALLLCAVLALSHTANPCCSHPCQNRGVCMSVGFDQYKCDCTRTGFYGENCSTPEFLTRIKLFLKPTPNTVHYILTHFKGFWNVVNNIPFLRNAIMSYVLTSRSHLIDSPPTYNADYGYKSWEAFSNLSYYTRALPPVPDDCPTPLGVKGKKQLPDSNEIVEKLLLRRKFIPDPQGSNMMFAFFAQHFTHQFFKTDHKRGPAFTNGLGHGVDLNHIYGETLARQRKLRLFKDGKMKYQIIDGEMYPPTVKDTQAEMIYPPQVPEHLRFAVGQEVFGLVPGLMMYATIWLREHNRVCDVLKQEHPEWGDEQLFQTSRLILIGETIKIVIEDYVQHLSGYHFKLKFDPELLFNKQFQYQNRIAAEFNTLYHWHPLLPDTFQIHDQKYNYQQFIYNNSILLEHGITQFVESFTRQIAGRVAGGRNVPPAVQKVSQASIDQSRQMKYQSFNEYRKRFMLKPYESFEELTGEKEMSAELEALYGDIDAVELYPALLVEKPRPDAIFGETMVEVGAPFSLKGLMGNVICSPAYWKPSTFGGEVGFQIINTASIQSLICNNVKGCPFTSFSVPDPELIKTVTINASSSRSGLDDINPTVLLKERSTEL
Histamine H1 receptor (Homo sapiens), sequence (P35367 whole entry): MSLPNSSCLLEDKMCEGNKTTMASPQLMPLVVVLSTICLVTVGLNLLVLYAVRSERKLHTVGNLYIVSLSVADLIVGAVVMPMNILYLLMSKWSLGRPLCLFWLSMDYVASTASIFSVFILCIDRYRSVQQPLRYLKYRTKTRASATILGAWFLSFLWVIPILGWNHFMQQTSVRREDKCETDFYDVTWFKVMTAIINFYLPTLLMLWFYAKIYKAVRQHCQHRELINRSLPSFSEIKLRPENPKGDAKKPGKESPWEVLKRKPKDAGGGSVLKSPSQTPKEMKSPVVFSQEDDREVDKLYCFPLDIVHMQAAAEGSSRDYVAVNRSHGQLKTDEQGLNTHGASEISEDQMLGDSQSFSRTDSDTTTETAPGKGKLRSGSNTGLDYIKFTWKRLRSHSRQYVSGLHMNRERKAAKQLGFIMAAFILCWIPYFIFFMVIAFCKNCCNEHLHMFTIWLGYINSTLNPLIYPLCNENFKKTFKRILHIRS
Phosphorylase b kinase gamma catalytic chain, liver/testis isoform (Homo sapiens), sequence (P15735 whole entry, canonical isoform): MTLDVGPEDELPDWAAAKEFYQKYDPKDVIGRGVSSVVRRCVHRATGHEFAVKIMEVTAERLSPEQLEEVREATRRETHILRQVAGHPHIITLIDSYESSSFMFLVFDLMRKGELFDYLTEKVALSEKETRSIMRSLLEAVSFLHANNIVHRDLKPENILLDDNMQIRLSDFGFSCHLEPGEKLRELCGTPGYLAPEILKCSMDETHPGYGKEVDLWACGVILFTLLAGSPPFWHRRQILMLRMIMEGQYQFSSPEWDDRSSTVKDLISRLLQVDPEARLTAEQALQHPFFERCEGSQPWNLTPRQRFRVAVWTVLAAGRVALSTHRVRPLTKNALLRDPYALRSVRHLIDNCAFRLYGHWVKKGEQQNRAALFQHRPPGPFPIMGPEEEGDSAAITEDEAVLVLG

## COCCc1ccc(-c2c(C)nc3c(N4CCOCC4)ccnn23)cn1 [JNJ-42396302]
[1]
  inhibition: 2%
[2]
  inhibition: 0%
[3]
  inhibition: -2%
[4]
  inhibition: 7%
[5]
  inhibition: 2%
[6]
  inhibition: 3%
[7]
  inhibition: 10%
[8]
  inhibition: 1%
[9]
  inhibition: -6%
[10]
  inhibition: 0%
[11]
  inhibition: -1%
[12]
  inhibition: -6%
[13]
  inhibition: -2%
[14]
  inhibition: -1%
[15]
  inhibition: 1%
[16]
  inhibition: -3%
[17]
  inhibition: 10%
[18]
  inhibition: 4%
[19]
  inhibition: -6%
[20]
  inhibition: 3%
[21]
  inhibition: -10%
[22]
  inhibition: 10%
[23]
  inhibition: 0%
[24]
  inhibition: 24%
[25]
  inhibition: -4%
[26]
  inhibition: -1%
[27]
  Ki: 3.4 µM
[28]
  Ki: 33 µM
[29]
  Ki: 46 µM
[30]
  effect: 6.7%
[31]
  effect: 6.35%
[32]
  effect: -2.55%
Rattus norvegicus [33]
  effect: -25.3%
[34]
  effect: 11%
[35]
  effect: 6.95%
[36]
  effect: 4.9%
Rattus norvegicus [37]
  effect: -9.45%
[38]
  effect: 2.05%
[39]
  effect: 18.1%
[40]
  effect: 27.3%
[41]
  effect: 13.4%

## c1ccc(C2CCN(c3cnc4c(N5CCOCC5)nccn34)CC2)cc1
[42]
  inhibition: 5.84%
[43]
  inhibition: 1.22%
